Like-named read-outs stand apart in the source and are kept apart here.
How the values were obtained:
B6×129-IL-10−/− mice = conditions: for Serum Calcium B6x129-IL-10−/− female (mg/dL): analyzed when mice lost 15% of body weight; for Serum Calcium B6x129-IL-10−/− male (mg/dL): analyzed four weeks later
Procedure: The calcitriol feeding was resumed at a lower dose (20 ng/d) at age 16 weeks. […] The calcitriol feeding was resumed at a lower dose (10 ng/d) at age 18 weeks.
Four weeks later, the serum calcium levels were measured (Table 10).

[1] = test system: DS-induced colitis in C3H/HeJ male mice; assay: Calcitriol prevention of DS-induced colitis; format: in vivo, mouse
Procedure: Fecal hemoglobin was analyzed in the mice to determine bleeding from a breached intestinal barrier. […] Co., Needham Heights, Mass.), the supernatants were decanted into fresh tubes and stored frozen at -20° C. Hemoglobin in the supernatants was analyzed by a method adapted from Saitoh et al., Digestion, 56:67-75, 1995, and Liem et al., Anal. Biochem., 98:388-393, 1979, with rat hemoglobin as standard (Sigma-Aldrich). The supernatants were diluted 1:25 in TBS. […] The reaction was stopped with 100 μL of 2 M phosphoric acid, and the absorbance at 450 nm was measured with an MRX Revelation Microplate Reader (DYNEX Technologies). […] The mice were euthanized with an i.p. injection of pentobarbital. […] The fixed tissue was embedded in paraffin, sectioned at 6 μm, stained with hematoxylin and eosin, and examined by light microscopy. Scoring was conducted by a veterinary pathologist in blinded fashion. […] Clin. Invest., 98:1010-1020, 1996. The scores were summed to provide a total colitis score for each mouse. […] In particular, age-matched C3H/HeJ male mice were fed a synthetic diet (see Example 6) with or without calcitriol or prednisolone for one week. […] The mice were weighed every 3-4 days thereafter. […] Serum and colon tissue were collected on day 28. Most assays were performed as described in Example 6, and the terminal serum calcium assay was performed as described below. […] The serum was decanted and stored frozen at -20° C. The samples, standards, and buffer blanks (2 μL each) were aliquoted into duplicate wells of a 96-well plate. Calcium reagent working solution (0.25 mL), prepared according to the manufacturer's directions (Sigma Diagnostics, St. Louis, Mo.), was added to each well, and the absorbance at 570 nm was measured.

129-IL-10−/− mice = assay: Spontaneous colitis in strain 129-IL-10-deficient mice; format: in vivo, mouse
Excerpt: This example describes the spontaneous colitis that develops spontaneously in strain 129-IL-10^−/− mice with and without administration of calcitriol. It has been reported that mice made genetically deficient in IL-10 spontaneously develop chronic enterocolitis (Kuhn et al., Cell, 75:263-274, 1993) if resident enteric bacteria is present (Sellon et al., Infect. Immunity, 66:5224-5231, 1998). The effect of calcitriol on spontaneous colitis in 129-IL-10^−/− mice is examined. […] The mice were age 7 weeks when they were exposed to soiled bedding from mice housed under conventional conditions. This was done to provide the enteric bacteria for development of colitis.

Lyme arthritis in mice = conditions: calcitriol administered to mice; cited from earlier work
[2] = test system: chronic DS-induced IBD in C3H/HeJ male mice; assay: Calcitriol treatment of chronic DS-induced colitis; format: in vivo, mouse
Procedure: Fecal hemoglobin was analyzed in the mice to determine bleeding from a breached intestinal barrier. […] Co., Needham Heights, Mass.), the supernatants were decanted into fresh tubes and stored frozen at -20° C. Hemoglobin in the supernatants was analyzed by a method adapted from Saitoh et al., Digestion, 56:67-75, 1995, and Liem et al., Anal. Biochem., 98:388-393, 1979, with rat hemoglobin as standard (Sigma-Aldrich). The supernatants were diluted 1:25 in TBS. […] The reaction was stopped with 100 μL of 2 M phosphoric acid, and the absorbance at 450 nm was measured with an MRX Revelation Microplate Reader (DYNEX Technologies). […] The mice were euthanized with an i.p. injection of pentobarbital. […] The fixed tissue was embedded in paraffin, sectioned at 6 μm, stained with hematoxylin and eosin, and examined by light microscopy. Scoring was conducted by a veterinary pathologist in blinded fashion. […] Clin. Invest., 98:1010-1020, 1996. The scores were summed to provide a total colitis score for each mouse. […] The serum was decanted and stored frozen at -20° C. The samples, standards, and buffer blanks (2 μL each) were aliquoted into duplicate wells of a 96-well plate. Calcium reagent working solution (0.25 mL), prepared according to the manufacturer's directions (Sigma Diagnostics, St. Louis, Mo.), was added to each well, and the absorbance at 570 nm was measured. […] In particular, age-matched adult C3H/HeJ male mice were subjected to three DS treatment cycles treatment separated by 6-8 weeks. […] Between treatments, the mice were fed laboratory mouse chow. These treatments induced chronic IBD. Beginning 10 days after the last DS treatment was completed, the mice were divided into two groups. The groups were matched with respect to fecal Hg and weight (Table 6). Group A was fed synthetic diet and group B was fed calcitriol in synthetic diet. The experiment was terminated 21 days later.

[3] = female, dose gradually reduced, age 24 weeks
[4] = female, dose gradually reduced, terminated at age 24 weeks
[5] = male, 50 ng/d, terminated at age 19 weeks
[6] = 50 ng/day after cycle 3, 21 days, 3 cycles of 1% DS
[7] = 50 ng/day after cycle 3, 3 cycles of 1% DS

Structure (SMILES): C=C1/C(=C\C=C2/CCC[C@]3(C)[C@@H]([C@H](C)CCCC(C)(C)O)CC[C@@H]23)C[C@@H](O)C[C@@H]1O [Calcitriol, 1,25 dihydroxyvitamin D3]
- Effect on spontaneous colitis (B6×129-IL-10−/− mice; 50 ng/d, colitis severity scores vs mock-treated not significantly different): did not inhibit spontaneous colitis
- Serum Calcium B6x129-IL-10−/− female (mg/dL) (B6×129-IL-10−/− mice; female, 10 ng/d): 12.5 ± 1.5 mg/dL
- Serum Calcium B6x129-IL-10−/− female (mg/dL) (B6×129-IL-10−/− mice; female, 20 ng/d): 13.0 ± 3.0 mg/dL
- Serum Calcium B6x129-IL-10−/− female (mg/dL) (B6×129-IL-10−/− mice; female, 50 ng/d): 12.9 ± 2.4 mg/dL
- Peak fecal hemoglobin (B6×129-IL-10−/− mice; female, calcitriol from age 7 weeks, dose gradually reduced, terminated at age 24 weeks): 0 ± 0 mg/g
- Colon Histopathology, Distal colon (B6×129-IL-10−/− mice; [3]): 3.3 ± 0.5
- Colon Histopathology, Middle colon (B6×129-IL-10−/− mice; [3]): 3.3 ± 0.5
- Colon Histopathology, Rectum + anus (B6×129-IL-10−/− mice; [3]): 2.8 ± 1.9
- Colon histopathology, Proximal colon (B6×129-IL-10−/− mice; [3]): 3.9 ± 0.3
- Colon histopathology, Sum (B6×129-IL-10−/− mice; [3]): 13.1 ± 2.7
- Terminal Serum Ca (B6×129-IL-10−/− mice; [4]): 12.5 ± 1.5 mg/dL
- Terminal weight (B6×129-IL-10−/− mice; [4]): 19.5 ± 1.5 g
- Weight lost (B6×129-IL-10−/− mice; female, feeding resumed at 20 ng/d at age 16 weeks): 15%
- Serum Calcium B6x129-IL-10−/− male (mg/dL) (B6×129-IL-10−/− mice; male, 10 ng/d): 15.8 ± 2.1 mg/dL
- Serum Calcium B6x129-IL-10−/− male (mg/dL) (B6×129-IL-10−/− mice; male, 20 ng/d): 14.4 ± 1.0 mg/dL
- Peak fecal hemoglobin (B6×129-IL-10−/− mice; male, 50 ng/d from age 7 weeks, terminated at age 19 weeks): 0 ± 0 mg/g
- Colon Histopathology, Distal colon (B6×129-IL-10−/− mice; male, 50 ng/d, age 19 weeks): 3.0 ± 0.0
- Colon Histopathology, Middle colon (B6×129-IL-10−/− mice; male, 50 ng/d, age 19 weeks): 1.7 ± 1.2
- Colon Histopathology, Rectum + anus (B6×129-IL-10−/− mice; male, 50 ng/d, age 19 weeks): 2.7 ± 0.6
- Colon histopathology, Proximal colon (B6×129-IL-10−/− mice; male, 50 ng/d, age 19 weeks): 3.7 ± 0.6
- Colon histopathology, Sum (B6×129-IL-10−/− mice; male, 50 ng/d, age 19 weeks): 11.1 ± 1.0
- Serum Calcium B6x129-IL-10−/− male (mg/dL) (B6×129-IL-10−/− mice; male, 50 ng/d): 16.0 ± 3.5 mg/dL
- Terminal Serum Ca (B6×129-IL-10−/− mice; [5]): 15.6 ± 2.5 mg/dL
- Terminal weight (B6×129-IL-10−/− mice; [5]): 19.7 ± 0.9 g
- Mortality of male mice (B6×129-IL-10−/− mice; male, 100 ng/d from age 7 weeks): died abruptly at age 15 weeks
- Hypercalcemia (B6×129-IL-10−/− mice; male, graded (very low) doses from age 7 weeks, four weeks): severe hypercalcemia
- Peak Hg in Stool ([1]; 50 ng/day in diet from day −7, 1% DS days 0 to 5): 4.3 ± 4.4 mg/g
- Effect of pre-treatment on severity of DS-induced IBD ([1]; 50 ng/day pre-treatment): reduced the severity of DS-induced IBD
- Colon Histopathology, Distal colon ([1]; 50 ng/day, 1% DS, score 0 to 4): 0.6 ± 0.9
- Colon histopathology, Medial colon ([1]; 50 ng/day, 1% DS, score 0 to 4): 0.4 ± 0.9
- Colon histopathology, Proximal colon ([1]; 50 ng/day, 1% DS, score 0 to 4): 0.4 ± 0.5
- Colon histopathology, Rectum ([1]; 50 ng/day, 1% DS, score 0 to 4): 1.2 ± 1.1
- Colon histopathology, Sum ([1]; 50 ng/day, 1% DS, total score 0 to 16): 2.6 ± 1.9
- Peak Hg in the stool, lower than that in the prednisolone-treated group ([1]; calcitriol 50 ng/day vs prednisolone 50 ng/day): 65%
- Peak Hg in the stool, lower than that in the untreated group ([1]; calcitriol 50 ng/day vs untreated DS group): 37%
- Total colon histopathology score, lower than the score of the untreated group B ([1]; calcitriol group C vs group B): 61%
- Total colon histopathology score, lower than the score of the prednisolone-treated group D ([1]; calcitriol group C vs group D): 51%
- Colon Histopathology, Distal colon (129-IL-10−/− mice; 10 ng/day): 4 ± 0
- Colon histopathology, Medial colon (129-IL-10−/− mice; 10 ng/day): 4 ± 0
- Colon histopathology, Proximal colon (129-IL-10−/− mice; 10 ng/day): 4 ± 0
- Colon histopathology, Rectum (129-IL-10−/− mice; 10 ng/day): 4 ± 0
- Colon histopathology, Sum (129-IL-10−/− mice; 10 ng/day): 16 ± 0
- Peak hemoglobin in stool (129-IL-10−/− mice; 10 ng/day in synthetic diet): 0 ± 0
- Terminal serum calcium (129-IL-10−/− mice; 10 ng/day in synthetic diet): 12.5 ± 1.5 mg/dL
- Terminal weight (129-IL-10−/− mice; 10 ng/day in synthetic diet): 19.5 ± 1.5 g
- Effect on spontaneous colitis (129-IL-10−/− mice; 129-IL-10−/− mice): did not prevent spontaneous colitis
- Hypercalcemia (129-IL-10−/− mice; 129-IL-10−/− mice): developed hypercalcemia
- Disease induction for Lyme arthritis (Lyme arthritis in mice): blocked disease induction
- Terminal serum calcium [2, 6]: 10.3 ± 1.1 mg/dL
- Terminal weight [2, 6]: 35.1 ± 4.0 g
- Colon Histopathology, Distal colon [2, 7]: 1 ± 1
- Colon histopathology, Medial colon [2, 7]: 1 ± 1
- Colon histopathology, Proximal colon [2, 7]: 2 ± 1
- Colon histopathology, Rectum [2, 7]: 2 ± 1
- Colon histopathology, Sum [2, 7]: 6 ± 2
- Hemoglobin in Stool (DS cycle 3) ([2]; DS cycle 3, before calcitriol was started (groups matched for fecal Hg)): 9 ± 10 mg/g
- Effect on severity of chronic DS-induced IBD ([2]; calcitriol in synthetic diet for 21 days): reduced the severity of chronic DS-induced IBD
- Reduction in colon histopathology ([2]; treated with calcitriol for 21 days): approximately 45%

Source: patent US6989377B2, “Treating vitamin D responsive diseases” (priority 1999, dated 2006)
